In patent US11602534B2, “Pyrimidine derivative kinase inhibitors” (HEFEI INSTITUTES OF PHYSICAL SCIENCE, CHINESE ACADEMY OF …, priority 2017, dated 2023):

Assays:
Tel-cKit-BaF3 = experiment: Proliferation of Tel-cKit-BaF3 cells, CCK8 cell viability assay; type: cell-based, mouse; conditions: for GI50: Mus musculus, 72 hours, CCK8, stably expressing cKIT kinase
Outline: (§1)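 Human kinase-region sequences were PCR-amplified, fused behind N-terminal TEL in MSCV-Puro and stably introduced into mouse BaF3 by retrovirus. IL-3 was then removed to give kinase-dependent lines. Compound effects on these and on parental BaF3 are scored as GI50 (μM) via CCK8 viable-cell quantification.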

Tel-cKit/T670I-BaF3 = experiment: Proliferation of Tel-cKit/T670I-BaF3 cells, CCK8 cell viability assay; type: cell-based; conditions: Mus musculus, 72 hours, stably expressing cKIT/T670I
Outline: as §1

Tel-FLT3-BaF3 = experiment: Proliferation of Tel-FLT3-BaF3 cells, CCK8 cell viability assay; type: cell-based; conditions: Mus musculus, 72 hours, stably expressing FLT3 kinase
Outline: (§2)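 Murine BaF3 cells made IL-3-independent by retroviral transduction of human kinase domains fused to N-terminal TEL or TPR fragments; parental BaF3 included. Living cells quantified by CCK8 (dehydrogenase activity) read-out, giving GI50 in μM.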

BaF3 = experiment: Proliferation of BaF3 cells, CCK8 cell viability assay; type: cell-based; conditions: Mus musculus, 72 hours
Outline: as §2

TEL-PDGFRβ-BaF3 = experiment: Proliferation of TEL-PDGFRβ-BaF3 cells, CCK8 cell viability assay; type: cell-based; conditions: Mus musculus, 72 hours, stably expressing PDGFRβ kinase
Outline: as §1

Tel-RET-BaF3 = experiment: Proliferation of Tel-RET-BaF3 cells, CCK8 cell viability assay; type: cell-based; conditions: Mus musculus, 72 hours, stably expressing RET kinase
Description: In this example the following cells were used: […] (purchased from ATCC), mouse P210-BaF3 (stably expressing BCR-ABL mutant activated kinase), mouse P210/T315I-BaF3 (stably expressing BCR-ABL/T315I mutant activated kinase), mouse FLT3-ITD-BaF3 (stably expressing FLT3/ITD mutant activated kinase), mouse TEL-FLT3-BaF3 (stably expressing FLT3 kinase), mouse TEL-cKIT-BaF3 (stably expressing cKIT kinase), mouse BaF3-tel/T670I-cKit (stably expressing cKIT/T670I mutant activated kinase), mouse Tel-VEGFR2-BaF3 (stably expressing VEGFR2 kinase), mouse Tel-PDGFRα-BaF3 (stably expressing PDGFRα kinase), mouse Tel-PDGFRβ-BaF3 (stably expressing PDGFRβ kinase), mouse Tel-RET-BaF3 (stably expressing RET kinase). The above cell lines were all constructed by our laboratory according to the following method: the kinase region sequences of human P210, P210/T315I, FLT3/ITD, FLT3, cKIT, cKIT/T670I, VEGFR2, PDGFRα, PDGFRβ, RET were respectively amplified by PCR, and inserted into MSCV-Puro vectors having N-terminal TEL or TPR fragments (Clontech). The vectors were stably transfected into mouse BaF3 cells by means of retrovirus, and the growth factor IL-3 were removed, eventually obtaining cell lines that depend on transferred protein P210, P210/T315I, FLT3/ITD, FLT3, cKIT, cKIT/T670I, VEGFR2, PDGFRα, PDGFRβ, or RET.
GI50 (unit: μM) was calculated by quantifying the number of living cells based on quantitative measurement of reductive dehydrogenase in living cells with CCK8 cell viability assay kit (Bestbio, China).

TEL-VEGFR2-BaF3 = experiment: Proliferation of TEL-VEGFR2-BaF3 cells, CCK8 cell viability assay; type: cell-based; conditions: Mus musculus, 72 hours, stably expressing VEGFR2 kinase
Outline: as §2

TEL-PDGFRα-BaF3 = experiment: Proliferation of TEL-PDGFRα-BaF3 cells, CCK8 cell viability assay; type: cell-based; conditions: Mus musculus, 72 hours, stably expressing PDGFRα kinase
Outline: as §1

P210-BaF3 = experiment: Proliferation of P210-BaF3 cells, CCK8 cell viability assay; type: cell-based; conditions: Mus musculus, 72 hours, stably expressing BCR-ABL mutant activated kinase
Outline: as §2

FLT3-ITD-BaF3 = experiment: Proliferation of FLT3-ITD-BaF3 cells, CCK8 cell viability assay; type: cell-based; conditions: Mus musculus, 72 hours, stably expressing FLT3/ITD
Outline: as §2

P210/T315I-BaF3 = experiment: Proliferation of P210/T315I-BaF3 cells, CCK8 cell viability assay; type: cell-based; conditions: Mus musculus, 72 hours, stably expressing BCR-ABL/T315I
Outline: as §2

SMILES	GI50 (Tel-cKit-BaF3)	GI50 (Tel-cKit/T670I-BaF3)	GI50 (Tel-FLT3-BaF3)	GI50 (BaF3)	GI50 (TEL-PDGFRβ-BaF3)	GI50 (Tel-RET-BaF3)	GI50 (TEL-VEGFR2-BaF3)	GI50 (TEL-PDGFRα-BaF3)	GI50 (P210-BaF3)	GI50 (FLT3-ITD-BaF3)	GI50 (P210/T315I-BaF3)	inhibition of cKIT (in words) (Tel-cKit-BaF3; summary of Table 2)
CC(=O)Nc1cc(Oc2ccc(NC(=O)Cc3ccccc3I)cc2)ncn1 [Example 4, N-[4-(6-acetylamino-pyrimidin-4-yloxy)-phenyl]-2-(2-iodo-phenyl)-acetamide]	> 10 µM	> 10 µM	0.667 µM	> 10 µM	0.048 µM	> 10 µM	0.734 µM	0.013 µM	> 10 µM	0.061 µM	–	–
CC(=O)Nc1cc(Oc2ccc(NC(=O)Cc3c(Cl)cccc3Cl)cc2)ncn1 [Example 6, N-[4-(6-acetylamino-pyrimidin-4-yloxy)-phenyl]-2-(2,6-dichloro-phenyl)-acetamide]	> 10 µM	> 10 µM	0.663 µM	> 10 µM	0.346 µM	> 10 µM	1.93 µM	0.059 µM	> 10 µM	0.063 µM	–	–
CC(=O)Nc1cc(Oc2ccc(NC(=O)Cc3cc(C)ccc3C)cc2)ncn1 [Example 7, N-[4-(6-acetylamino-pyrimidin-4-yloxy)-phenyl]-2-(2,5-dimethyl-phenyl)-acetamide]	3.21 µM	> 10 µM	0.236 µM	> 10 µM	0.07 µM	> 10 µM	0.518 µM	0.035 µM	> 10 µM	0.067 µM	> 10 µM	–
CC(=O)Nc1cc(Oc2ccc(NC(=O)Cc3ccc(Cl)cc3Cl)cc2)ncn1 [Example 8, N-[4-(6-acetylamino-pyrimidin-4-yloxy)-phenyl]-2-(2,4-dichloro-phenyl)-acetamide]	0.524 µM	> 10 µM	0.017 µM	> 10 µM	0.003 µM	> 10 µM	0.139 µM	0.001 µM	6.74 µM	0.004 µM	> 10 µM	–
CC(=O)Nc1cc(Oc2ccc(NC(=O)Cc3cccc([N+](=O)[O-])c3C)cc2)ncn1 [Example 9, N-[4-(6-acetylamino-pyrimidin-4-yloxy)-phenyl]-2-(2-methyl-3-nitro-phenyl)-acetamide]	0.584 µM	5.63 µM	0.012 µM	> 10 µM	0.01 µM	> 10 µM	0.304 µM	0.004 µM	> 10 µM	0.002 µM	> 10 µM	–
COc1cc(CC(=O)Nc2ccc(Oc3cc(NC(C)=O)ncn3)cc2)ccc1O [Example 11, N-[4-(6-acetylamino-pyrimidin-4-yloxy)-phenyl]-2-(4-hydroxy-3-methoxy-phenyl)-acetamide]	> 10 µM	> 10 µM	1.1 µM	> 10 µM	0.271 µM	> 10 µM	1.52 µM	0.227 µM	> 10 µM	0.346 µM	> 10 µM	–
CC(=O)Nc1cc(Oc2ccc(NC(=O)Cc3cccc(Oc4ccccc4)c3)cc2)ncn1 [Example 12, N-[4-(6-acetylamino-pyrimidin-4-yloxy)-phenyl]-2-(3-phenoxy-phenyl)-acetamide]	2.13 µM	8.64 µM	0.649 µM	> 10 µM	0.029 µM	0.672 µM	0.229 µM	0.02 µM	> 10 µM	0.204 µM	> 10 µM	–
CC(=O)Nc1cc(Oc2ccc(NC(=O)Cc3cccc(Br)c3)cc2)ncn1 [Example 13, N-[4-(6-acetylamino-pyrimidin-4-yloxy)-phenyl]-2-(3-bromo-phenyl)-acetamide]	6.89 µM	> 10 µM	0.616 µM	> 10 µM	0.033 µM	> 10 µM	0.566 µM	0.004 µM	> 10 µM	0.099 µM	> 10 µM	–
CC(=O)Nc1cc(Oc2ccc(NC(=O)C(O)c3ccc(Br)cc3)cc2)ncn1 (stereo not shown) [Example 14, N-[4-(6-acetylamino-pyrimidin-4-yloxy)-phenyl]-2-(4-bromo-phenyl)-2-hydroxy-acetamide]	> 10 µM	> 10 µM	0.713 µM	> 10 µM	0.341 µM	> 10 µM	1.24 µM	0.089 µM	> 10 µM	0.284 µM	> 10 µM	–
COCCNc1cc(Oc2ccc(NC(=O)Nc3ccc(C(F)(F)F)cc3)cc2)ncn1 [Example 73, 1-{4-[6-(2-methoxy-ethylamino)-pyrimidin-4-yloxy]-phenyl}-3-(4-trifluoromethyl-phenyl)-urea]	5.68 µM	> 10 µM	1.57 µM	> 10 µM	0.154 µM	> 10 µM	–	0.165 µM	> 10 µM	0.17 µM	> 10 µM	–
COc1ccc(CNc2cc(Oc3ccc(NC(=O)Nc4ccc(CN5CCNCC5)c(C(F)(F)F)c4)cc3)ncn2)cc1 [Example 180, 1-{4-[6-(4-methoxy-benzylamino)-pyrimidin-4-yloxy]-phenyl}-3-(4-piperazin-1-ylmethyl-3-trifluoromethyl-phenyl)-urea]	0.33 µM	2.85 µM	0.022 µM	9.01 µM	0.315 µM	0.331 µM	0.039 µM	0.112 µM	–	0.003 µM	1.72 µM	–
CNC(=O)c1cc(Oc2ccc(NC(=O)Nc3ccc(Cl)c(C(F)(F)F)c3)cc2)ccn1 [Sorafenib, reference compound]	0.058 µM	0.112 µM	0.0009 µM	6.99 µM	0.035 µM	0.365 µM	–	0.0006 µM	3.83 µM	0.0003 µM	–	strongly inhibits
